Values joined by “and” are separate entries in the source; they are usually repeats but may differ in a detail not shown here. Equal entries are not always repeated.
How the values were obtained:
[1] = biological target: T1, CAMK2d (Homo sapiens, UniProt Q13557); test: Kinome profiling; assay type: biochemical; conditions: VT02956 (5 nM), read-out: % enzymatic activity relative to DMSO controls
T1 construct: LATS1/LATS2 enzymes from Signalchem

[2] = test system: MDA-MB-231 cells; test: Cell proliferation, MDA-MB-231; assay type: cell-based; conditions: 0.5 µM or 2 µM VT02956 for 4 days; Supplementary Fig. 8e
Protocol: (§1) Cell proliferation rates were determined by automated cell counter. In brief, cells were plated at density of 0.1 million cells per well in six-well plate. Cell numbers were counted by the indicated time point as stated in the figure legends.

[3] = biological target: T2, LATS2 (Homo sapiens, UniProt Q9NRM7); test: Kinome profiling; assay type: biochemical; conditions: VT02956 (5 nM)
T2 construct: purchased Signalchem
T2 sequence (Q9NRM7 1-1088): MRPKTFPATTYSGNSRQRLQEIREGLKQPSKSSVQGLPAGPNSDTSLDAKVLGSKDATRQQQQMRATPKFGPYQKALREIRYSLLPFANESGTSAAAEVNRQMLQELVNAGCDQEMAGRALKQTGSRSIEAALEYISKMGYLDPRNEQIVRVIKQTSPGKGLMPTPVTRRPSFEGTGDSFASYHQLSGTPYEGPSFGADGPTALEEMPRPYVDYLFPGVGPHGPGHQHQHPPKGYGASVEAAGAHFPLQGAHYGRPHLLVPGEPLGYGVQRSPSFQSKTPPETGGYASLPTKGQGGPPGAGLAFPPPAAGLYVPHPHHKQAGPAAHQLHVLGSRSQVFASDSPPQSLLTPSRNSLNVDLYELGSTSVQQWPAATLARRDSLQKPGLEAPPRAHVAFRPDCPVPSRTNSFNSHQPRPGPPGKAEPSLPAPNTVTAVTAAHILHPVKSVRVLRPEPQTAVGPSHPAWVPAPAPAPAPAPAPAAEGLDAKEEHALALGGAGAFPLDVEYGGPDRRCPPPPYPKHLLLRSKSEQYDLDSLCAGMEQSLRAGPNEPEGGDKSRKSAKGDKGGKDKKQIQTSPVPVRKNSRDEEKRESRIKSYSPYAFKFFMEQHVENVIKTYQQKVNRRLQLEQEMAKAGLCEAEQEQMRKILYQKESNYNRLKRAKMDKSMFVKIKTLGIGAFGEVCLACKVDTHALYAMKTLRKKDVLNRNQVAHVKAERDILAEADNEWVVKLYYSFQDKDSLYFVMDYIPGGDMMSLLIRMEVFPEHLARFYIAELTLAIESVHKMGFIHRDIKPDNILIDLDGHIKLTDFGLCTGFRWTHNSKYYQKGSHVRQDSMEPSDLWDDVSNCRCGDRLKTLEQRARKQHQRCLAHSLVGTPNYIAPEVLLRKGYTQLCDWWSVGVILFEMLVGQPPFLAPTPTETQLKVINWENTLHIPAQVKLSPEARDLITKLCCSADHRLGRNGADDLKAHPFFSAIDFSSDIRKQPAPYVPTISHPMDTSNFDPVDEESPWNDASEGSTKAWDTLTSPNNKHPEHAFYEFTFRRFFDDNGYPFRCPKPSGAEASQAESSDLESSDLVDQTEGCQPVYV

[4] = biological target: T3, p70S6K/RPS6KB1 (Homo sapiens, UniProt P23443); test: Kinome profiling; assay type: biochemical; conditions: VT02956 (5 nM), read-out: % enzymatic activity relative to DMSO controls
T3 construct: LATS1/LATS2 enzymes from Signalchem

[5] = test system: MCF-7 cells; test: Cell proliferation by cell counting, MCF-7; assay type: cell-based, human; conditions: for Cell proliferation normalised to DMSO treated WT cells: 4 days, Fig.6c
Protocol: as §1

[6] = biological target: T4, p70S6Kb/RPS6KB2 (Homo sapiens, UniProt Q9UBS0); test: Kinome profiling; assay type: biochemical; conditions: VT02956 (5 nM), read-out: % enzymatic activity relative to DMSO controls
T4 construct: LATS1/LATS2 enzymes from Signalchem

[7] = biological target: T5, PKN3/PRK3 (Homo sapiens, UniProt Q6P5Z2); test: Kinome profiling; assay type: biochemical; conditions: VT02956 (5 nM)
T5 construct: LATS1/LATS2 enzymes from Signalchem

[8] = biological target: T6, RSK1 (Homo sapiens, UniProt Q15418); test: Kinome profiling; assay type: biochemical; conditions: VT02956 (5 nM), read-out: % enzymatic activity relative to DMSO controls
T6 construct: LATS1/LATS2 enzymes from Signalchem

[9] = biological target: T7, MSK1/RPS6KA5 (Homo sapiens, UniProt O75582); test: Kinome profiling; assay type: biochemical; conditions: VT02956 (5 nM), read-out: % enzymatic activity relative to DMSO controls
T7 construct: LATS1/LATS2 enzymes from Signalchem

[10] = test system: Phospho-YAP (Ser127) in 4T1 cells; test: Cellular Phospho-YAP HTRF assay, 4T1; assay type: cell-based; conditions: for YAP phosphorylation: 4T1, Fig.5d
[11] = biological target: T8, AKT2 (Homo sapiens, UniProt P31751); test: Kinome profiling; assay type: biochemical; conditions: VT02956 (5 nM), read-out: % enzymatic activity relative to DMSO controls
T8 construct: LATS1/LATS2 enzymes from Signalchem

[12] = biological target: T9, PHKg2 (Homo sapiens, UniProt P15735); test: Kinome profiling; assay type: biochemical; conditions: VT02956 (5 nM), read-out: % enzymatic activity relative to DMSO controls
T9 construct: LATS1/LATS2 enzymes from Signalchem

[13] = biological target: T10, CK2a (Homo sapiens, UniProt P68400); test: Kinome profiling; assay type: biochemical; conditions: VT02956 (5 nM), read-out: % enzymatic activity relative to DMSO controls
T10 construct: LATS1/LATS2 enzymes from Signalchem

[14] = biological target: T11, MSK2/RPS6KA4 (Homo sapiens, UniProt O75676); test: Kinome profiling; assay type: biochemical; conditions: VT02956 (5 nM), read-out: % enzymatic activity relative to DMSO controls
T11 construct: LATS1/LATS2 enzymes from Signalchem

[15] = test system: 4T1 cells; test: Cell viability, 4T1; assay type: cell-based
[16] = biological target: T12, JAK1 (Homo sapiens, UniProt P23458); test: Kinome profiling; assay type: biochemical; conditions: VT02956 (5 nM)
T12 construct: LATS1/LATS2 enzymes from Signalchem

[17] = biological target: T13, IKKb/IKBKB (Homo sapiens, UniProt O14920); test: Kinome profiling; assay type: biochemical; conditions: VT02956 (5 nM), read-out: % enzymatic activity relative to DMSO controls
T13 construct: LATS1/LATS2 enzymes from Signalchem

[18] = test system: ER+ breast tumour organoids (BTO-02); test: 3D organoids drug response assay (CellTiter-Glo 3D); assay type: cell-based, human; conditions: 3D drug killing assay; 12 days after compound treatment; Fig. 6b
Protocol: Breast tumour organoids were dissociated into single cells using TrypLE Express and counted with automated cell counter. Subsequently, 1000 cells were mixed in 10 μl BME type 2, seeded onto 96-well plate in triplicate and overlaid with 100 μl BC organoid medium (BOM) after BME gelation. Three days after organoids sphere formation, medium was removed and replaced by 100 μl of complete medium containing VT02956 (0, 0.04, 0.2, 1, 5 μM) or vehicle (DMSO). The drug-containing medium was refreshed every 3 days for additional 3–4 times. At the end of the treatment, the effect of the drugs on the tumour organoids, in terms of the organoids cell growth, was assayed with CellTiter-Glo 3D (Promega) according to the manufacturer’s instructions and were normalised to vehicle controls (0.5% DMSO content). The IC50 values was calculated in GraphPad Prism 8.

T11 sequence (O75676 whole entry): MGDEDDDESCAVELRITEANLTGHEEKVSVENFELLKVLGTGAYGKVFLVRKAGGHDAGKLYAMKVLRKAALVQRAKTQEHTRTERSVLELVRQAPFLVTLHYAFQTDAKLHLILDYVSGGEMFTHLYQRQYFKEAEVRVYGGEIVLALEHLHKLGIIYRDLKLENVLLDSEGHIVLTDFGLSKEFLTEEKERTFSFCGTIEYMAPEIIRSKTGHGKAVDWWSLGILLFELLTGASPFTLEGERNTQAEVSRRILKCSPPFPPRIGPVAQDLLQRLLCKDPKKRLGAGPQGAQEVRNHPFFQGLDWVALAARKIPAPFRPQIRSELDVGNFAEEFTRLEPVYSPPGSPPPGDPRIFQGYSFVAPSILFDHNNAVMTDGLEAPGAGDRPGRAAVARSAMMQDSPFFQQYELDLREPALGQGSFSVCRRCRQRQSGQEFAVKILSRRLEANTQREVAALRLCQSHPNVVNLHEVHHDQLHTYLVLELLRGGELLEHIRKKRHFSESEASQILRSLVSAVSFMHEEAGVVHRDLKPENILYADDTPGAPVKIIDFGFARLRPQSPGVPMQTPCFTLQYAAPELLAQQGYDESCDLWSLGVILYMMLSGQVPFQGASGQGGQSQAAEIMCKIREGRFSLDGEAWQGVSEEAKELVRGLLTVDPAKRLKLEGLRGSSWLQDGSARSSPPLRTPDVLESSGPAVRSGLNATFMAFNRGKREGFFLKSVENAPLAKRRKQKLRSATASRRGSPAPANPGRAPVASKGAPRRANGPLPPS
T12 sequence (P23458 whole entry): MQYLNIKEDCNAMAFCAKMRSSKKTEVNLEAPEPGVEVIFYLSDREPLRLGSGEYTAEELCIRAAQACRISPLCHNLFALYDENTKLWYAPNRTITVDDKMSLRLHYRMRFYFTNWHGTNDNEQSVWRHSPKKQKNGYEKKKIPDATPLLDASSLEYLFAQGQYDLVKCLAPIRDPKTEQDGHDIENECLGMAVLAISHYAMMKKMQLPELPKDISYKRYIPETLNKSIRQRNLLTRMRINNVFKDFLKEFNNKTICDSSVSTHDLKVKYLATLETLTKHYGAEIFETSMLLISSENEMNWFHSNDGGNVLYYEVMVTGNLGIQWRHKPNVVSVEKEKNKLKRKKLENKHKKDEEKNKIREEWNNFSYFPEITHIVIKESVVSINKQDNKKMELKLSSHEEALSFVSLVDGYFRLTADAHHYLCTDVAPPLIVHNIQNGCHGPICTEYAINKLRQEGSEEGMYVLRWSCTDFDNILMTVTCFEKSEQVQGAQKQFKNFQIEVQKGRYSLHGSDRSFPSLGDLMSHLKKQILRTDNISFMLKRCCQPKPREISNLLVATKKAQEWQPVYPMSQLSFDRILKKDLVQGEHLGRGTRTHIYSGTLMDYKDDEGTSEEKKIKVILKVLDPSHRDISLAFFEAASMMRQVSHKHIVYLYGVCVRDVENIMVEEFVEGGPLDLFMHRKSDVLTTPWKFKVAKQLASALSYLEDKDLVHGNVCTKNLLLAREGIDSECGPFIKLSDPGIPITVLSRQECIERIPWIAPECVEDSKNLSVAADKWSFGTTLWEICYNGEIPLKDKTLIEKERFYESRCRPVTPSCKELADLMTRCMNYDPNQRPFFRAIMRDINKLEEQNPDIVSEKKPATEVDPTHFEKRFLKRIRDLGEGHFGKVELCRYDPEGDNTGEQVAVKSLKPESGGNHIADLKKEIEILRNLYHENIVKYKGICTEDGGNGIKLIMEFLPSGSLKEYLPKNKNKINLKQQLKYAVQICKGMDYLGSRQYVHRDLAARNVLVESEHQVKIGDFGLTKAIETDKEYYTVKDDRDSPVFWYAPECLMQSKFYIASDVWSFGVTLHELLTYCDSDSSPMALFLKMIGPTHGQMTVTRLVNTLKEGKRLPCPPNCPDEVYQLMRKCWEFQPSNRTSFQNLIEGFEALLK
T8 sequence (P31751 whole entry): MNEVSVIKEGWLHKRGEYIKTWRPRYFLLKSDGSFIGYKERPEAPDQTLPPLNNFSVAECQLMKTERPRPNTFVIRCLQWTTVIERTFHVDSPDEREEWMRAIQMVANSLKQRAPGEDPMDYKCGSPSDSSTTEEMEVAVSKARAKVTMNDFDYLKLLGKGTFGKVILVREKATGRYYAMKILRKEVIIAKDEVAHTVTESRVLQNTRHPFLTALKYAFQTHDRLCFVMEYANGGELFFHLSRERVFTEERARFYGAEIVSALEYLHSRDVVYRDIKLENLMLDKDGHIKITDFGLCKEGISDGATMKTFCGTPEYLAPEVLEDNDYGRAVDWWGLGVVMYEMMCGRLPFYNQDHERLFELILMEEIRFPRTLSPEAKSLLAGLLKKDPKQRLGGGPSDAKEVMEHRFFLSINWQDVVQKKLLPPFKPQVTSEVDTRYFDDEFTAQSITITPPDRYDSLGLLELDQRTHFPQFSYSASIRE
T4 sequence (Q9UBS0 whole entry): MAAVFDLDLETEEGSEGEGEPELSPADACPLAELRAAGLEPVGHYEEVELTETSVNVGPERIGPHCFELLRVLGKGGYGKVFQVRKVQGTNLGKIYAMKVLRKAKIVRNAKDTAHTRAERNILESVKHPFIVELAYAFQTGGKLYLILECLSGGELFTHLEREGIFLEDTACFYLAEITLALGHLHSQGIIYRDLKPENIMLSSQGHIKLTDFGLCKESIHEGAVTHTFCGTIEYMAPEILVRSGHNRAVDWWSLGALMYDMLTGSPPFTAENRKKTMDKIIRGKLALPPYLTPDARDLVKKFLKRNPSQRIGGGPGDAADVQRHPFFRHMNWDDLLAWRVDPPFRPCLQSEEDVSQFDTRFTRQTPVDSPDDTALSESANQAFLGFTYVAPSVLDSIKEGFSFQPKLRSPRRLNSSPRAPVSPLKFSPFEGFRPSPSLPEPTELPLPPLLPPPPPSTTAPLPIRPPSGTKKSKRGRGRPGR
T13 sequence (O14920 whole entry): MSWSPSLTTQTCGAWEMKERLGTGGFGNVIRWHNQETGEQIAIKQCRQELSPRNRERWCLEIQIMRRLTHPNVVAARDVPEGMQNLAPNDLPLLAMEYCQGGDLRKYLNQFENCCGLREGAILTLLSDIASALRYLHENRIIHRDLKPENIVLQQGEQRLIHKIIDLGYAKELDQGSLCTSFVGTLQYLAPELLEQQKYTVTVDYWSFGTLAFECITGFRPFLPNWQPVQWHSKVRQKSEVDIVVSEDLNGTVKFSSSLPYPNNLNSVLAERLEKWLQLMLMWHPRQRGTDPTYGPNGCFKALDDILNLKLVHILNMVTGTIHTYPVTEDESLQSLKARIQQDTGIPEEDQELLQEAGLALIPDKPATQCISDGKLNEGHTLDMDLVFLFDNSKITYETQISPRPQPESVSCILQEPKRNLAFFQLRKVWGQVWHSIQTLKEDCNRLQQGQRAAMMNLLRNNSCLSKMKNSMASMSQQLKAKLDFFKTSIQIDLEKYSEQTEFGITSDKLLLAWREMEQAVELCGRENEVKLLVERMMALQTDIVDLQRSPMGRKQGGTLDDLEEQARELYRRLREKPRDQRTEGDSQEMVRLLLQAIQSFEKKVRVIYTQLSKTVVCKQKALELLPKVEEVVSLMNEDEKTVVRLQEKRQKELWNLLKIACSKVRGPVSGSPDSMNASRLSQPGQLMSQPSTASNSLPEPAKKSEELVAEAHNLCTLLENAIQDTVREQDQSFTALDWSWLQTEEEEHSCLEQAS
T1 sequence (Q13557 whole entry): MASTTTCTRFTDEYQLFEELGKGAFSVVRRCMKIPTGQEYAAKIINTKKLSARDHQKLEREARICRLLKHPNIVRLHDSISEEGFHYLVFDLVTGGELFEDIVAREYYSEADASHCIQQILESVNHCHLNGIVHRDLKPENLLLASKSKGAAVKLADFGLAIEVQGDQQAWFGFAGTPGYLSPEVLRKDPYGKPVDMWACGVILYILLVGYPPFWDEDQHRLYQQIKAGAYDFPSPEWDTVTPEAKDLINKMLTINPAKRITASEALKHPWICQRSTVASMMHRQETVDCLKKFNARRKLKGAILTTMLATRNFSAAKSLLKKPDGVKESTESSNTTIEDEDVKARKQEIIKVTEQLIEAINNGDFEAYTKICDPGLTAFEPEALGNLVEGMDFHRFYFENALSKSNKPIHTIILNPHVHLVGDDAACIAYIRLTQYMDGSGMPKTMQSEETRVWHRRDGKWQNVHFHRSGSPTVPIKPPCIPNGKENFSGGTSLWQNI
T3 sequence (P23443 whole entry): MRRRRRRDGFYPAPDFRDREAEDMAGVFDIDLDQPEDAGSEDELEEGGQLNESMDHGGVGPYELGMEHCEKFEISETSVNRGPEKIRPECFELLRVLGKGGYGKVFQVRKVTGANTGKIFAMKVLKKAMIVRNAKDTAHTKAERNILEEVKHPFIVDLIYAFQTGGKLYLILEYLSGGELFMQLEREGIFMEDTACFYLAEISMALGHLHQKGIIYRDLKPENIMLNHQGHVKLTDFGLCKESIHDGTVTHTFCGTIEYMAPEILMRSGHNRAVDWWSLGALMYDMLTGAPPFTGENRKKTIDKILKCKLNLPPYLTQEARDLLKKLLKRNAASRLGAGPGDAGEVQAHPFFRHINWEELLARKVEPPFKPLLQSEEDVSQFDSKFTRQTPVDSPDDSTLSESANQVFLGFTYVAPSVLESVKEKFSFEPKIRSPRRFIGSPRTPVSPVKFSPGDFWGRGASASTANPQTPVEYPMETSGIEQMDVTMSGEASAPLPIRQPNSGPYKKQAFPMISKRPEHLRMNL

remaining activity at 0.005 µM [1]: 77%
% enzymatic activity relative to DMSO controls [3]: 34%
remaining activity at 0.005 µM [4]: 38%
remaining activity at 0.005 µM [6]: 65%
% enzymatic activity relative to DMSO controls [7]: 64%
remaining activity at 0.005 µM [8]: 86%
remaining activity at 0.005 µM [9]: 49%
IC50 ([10]; Mus musculus, 4T1 cells, read-out: YAP phosphorylation IC50): 430 nM
remaining activity at 0.005 µM [11]: 85%
remaining activity at 0.005 µM [12]: 82%
remaining activity at 0.005 µM [13]: 85%
remaining activity at 0.005 µM [14]: 78%
IC50 ([15]; Mus musculus, 4T1 cells, n = 2, read-out: Cell viability inhibition IC50): > 10000 nM
% enzymatic activity relative to DMSO controls [16]: 82%
remaining activity at 0.005 µM [17]: 86%
SMILES: NCC1CCN(c2nc(-c3ccncc3)nc3c(C#CCO)cccc23)CC1 [VT02956]
growth of ER negative breast cancer MDA-MB-231 cells [2]: had little effect
MCF-7 proliferation ([5]; 0.5 µM or 2 µM, 4-day time course, Supplementary Fig. 8a, b): inhibited the proliferation of MCF-7 and T47D cells
Cell proliferation normalised to DMSO treated WT cells ([5]; MCF-7 LATS1/2 dKO, VT02956 0.5 uM): 31.2704 and 24.43 and 25.4072
Cell proliferation normalised to DMSO treated WT cells ([5]; MCF-7 LATS1/2 dKO, VT02956 2 uM): 23.4528 and 26.3844 and 21.4984
Cell proliferation normalised to DMSO treated WT cells ([5]; MCF-7 WT, VT02956 0.5 uM): 76.2215 and 83.0619 and 85.9935
Cell proliferation normalised to DMSO treated WT cells ([5]; MCF-7 WT, VT02956 2 uM): 41.0423 and 42.0195
Cell proliferation normalised to DMSO treated WT cells ([5]; MCF-7 YAP/TAZ dKO, VT02956 0.5 uM): 94.7883 and 88.9251 and 92.8339
Cell proliferation normalised to DMSO treated WT cells ([5]; MCF-7 YAP/TAZ dKO, VT02956 2 uM): 84.0391 and 80.1303 and 85.0163
YAP phosphorylation ([10]; Conc. 0.00457247 (µM)): 95.8709 and 110.479
YAP phosphorylation ([10]; Conc. 0.0137174 (µM)): 110.398 and 92.919
YAP phosphorylation ([10]; Conc. 0.0411523 (µM)): 99.5656 and 109.183
YAP phosphorylation ([10]; Conc. 0.123457 (µM)): 90.8642 and 77.798
YAP phosphorylation ([10]; Conc. 0.37037 (µM)): 55.9969 and 62.3937
growth of ER negative breast cancer cells 4T1 (cell viability) ([15]; increasing concentrations of VT02956, Supplementary Fig. 8g): does not inhibit the growth
growth of ER+ breast tumour organoids (BTOs) [18]: sensitive
